Experimental findings from ChEMBL document CHEMBL5331080, “Discovery of tetrahydrofuranyl spirooxindole-based SMYD3 inhibitors against gastric cancer via inducing lethal autophagy” (Eur J Med Chem, 2023) are described below.

Each structure is given as a SMILES string. The source made the active and inactive calls. The rule behind the calls is not given here.

Series [1] deals with T1, Histone-lysine N-methyltransferase SMYD3 (Homo sapiens) (UniProt Q9H7B4).
T1 sequence (whole entry): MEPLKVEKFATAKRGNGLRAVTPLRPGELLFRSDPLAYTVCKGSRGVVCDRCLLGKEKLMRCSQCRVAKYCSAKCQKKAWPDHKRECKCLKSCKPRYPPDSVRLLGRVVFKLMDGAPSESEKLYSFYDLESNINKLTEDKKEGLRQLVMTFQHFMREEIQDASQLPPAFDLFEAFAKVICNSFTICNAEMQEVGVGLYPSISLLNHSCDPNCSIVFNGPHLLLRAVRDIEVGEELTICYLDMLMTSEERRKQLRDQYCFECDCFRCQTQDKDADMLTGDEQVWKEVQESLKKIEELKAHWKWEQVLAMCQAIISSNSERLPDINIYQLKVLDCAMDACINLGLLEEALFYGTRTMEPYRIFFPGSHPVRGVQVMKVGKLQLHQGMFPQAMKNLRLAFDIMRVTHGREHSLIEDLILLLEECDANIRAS
Put plainly: (§1) Inhibition of GST-tagged SMYD3 (unknown origin) using biotinylated MAP3K2 peptide as substrate incubated for 1 hrs by TR-FRET based assay. For orientation: TR-FRET usually uses a lanthanide donor and a delayed reading to cut background.

Series [2] relates to HGC-27. In words: Antiproliferative activity against human HGC-27 cells assessed as inhibition of cell proliferation by MTT assay. Type of series: functional, cell-based. On the technique in general: Tetrazolium dyes change colour on reduction, which living cells bring about.
Series [3] concerns BGC-823. Put plainly: Antiproliferative activity against human BGC-823 cells assessed as inhibition of cell proliferation by MTT assay. It counts as functional, cell-based.
The subject of series [4] is BGC-823. In words: Inhibition of autophagic flux in human BGC-823 cells assessed as LC3-II accumulation incubated for 24 hrs in the presence of 3-MA by Western blot analysis. Type of series: functional, cell-based.
The subject of series [5] is BGC-823. Put plainly: Antiproliferative activity against human BGC-823 cells assessed as reduction in cell viability incubated for 48 hrs in the presence of 3-MA by MTT assay. It counts as functional, cell-based.
Series [6] relates to BGC-823. Put plainly: Inhibition of autophagic flux in human BGC-823 cells transfected with Akt1 siRNA assessed as increase in mTOR incubated for 24 hrs by Western blot analysis. It counts as functional, cell-based.
Series [7] has as its target T2, Histone-lysine N-methyltransferase EHMT2 (Homo sapiens) (UniProt Q96KQ7).
T2 sequence (whole entry): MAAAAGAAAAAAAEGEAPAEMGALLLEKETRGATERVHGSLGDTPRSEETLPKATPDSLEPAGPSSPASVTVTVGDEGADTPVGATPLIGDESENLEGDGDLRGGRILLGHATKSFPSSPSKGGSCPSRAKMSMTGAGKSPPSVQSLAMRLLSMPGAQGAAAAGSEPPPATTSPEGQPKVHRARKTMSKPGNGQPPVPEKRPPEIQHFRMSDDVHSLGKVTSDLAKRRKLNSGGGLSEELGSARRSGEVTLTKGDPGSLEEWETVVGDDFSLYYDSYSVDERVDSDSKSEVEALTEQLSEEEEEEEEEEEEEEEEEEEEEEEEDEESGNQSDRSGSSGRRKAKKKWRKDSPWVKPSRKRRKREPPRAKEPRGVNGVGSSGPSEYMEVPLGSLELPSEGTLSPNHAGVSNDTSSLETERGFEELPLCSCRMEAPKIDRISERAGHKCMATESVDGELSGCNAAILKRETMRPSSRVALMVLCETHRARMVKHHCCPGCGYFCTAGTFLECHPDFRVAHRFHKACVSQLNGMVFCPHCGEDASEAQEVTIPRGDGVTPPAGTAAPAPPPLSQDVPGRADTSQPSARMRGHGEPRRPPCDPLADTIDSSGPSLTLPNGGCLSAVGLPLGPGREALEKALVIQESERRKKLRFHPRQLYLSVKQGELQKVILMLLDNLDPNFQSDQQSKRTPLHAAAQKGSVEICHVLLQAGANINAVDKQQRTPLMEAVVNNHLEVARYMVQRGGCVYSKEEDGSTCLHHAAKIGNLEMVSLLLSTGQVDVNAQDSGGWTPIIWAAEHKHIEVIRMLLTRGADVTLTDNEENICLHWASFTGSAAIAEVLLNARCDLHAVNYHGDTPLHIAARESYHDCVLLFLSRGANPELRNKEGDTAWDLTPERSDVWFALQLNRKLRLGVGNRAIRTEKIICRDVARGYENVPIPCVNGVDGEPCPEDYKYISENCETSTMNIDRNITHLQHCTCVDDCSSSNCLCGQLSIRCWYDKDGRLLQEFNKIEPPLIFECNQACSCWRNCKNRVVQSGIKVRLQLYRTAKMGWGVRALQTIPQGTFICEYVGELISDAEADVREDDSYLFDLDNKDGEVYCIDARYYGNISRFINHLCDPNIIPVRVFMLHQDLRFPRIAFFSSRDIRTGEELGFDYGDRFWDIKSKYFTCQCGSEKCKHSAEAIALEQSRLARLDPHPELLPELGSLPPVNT
Put plainly: Inhibition of G9a (unknown origin).

Series [8] deals with BGC-823. Put plainly: Antiproliferative activity against human BGC-823 cells xenografted in Balb/c nude mouse assessed as induction of autophagy by measuring increase in LC3-II staining at 15 to 30 mg/kg, ip by immunohistochemistry analysis. The note with it: dose 15-30 mg/kg. It counts as functional, organism-based.
Series [9] concerns BGC-823. Put plainly: Inhibition of autophagic flux in human BGC-823 cells assessed as inhibition of autophagosome-lysosome fusion by measuring suppression of GFP-LC3 and LAMP1 intracellular co-localization incubated for 24 hrs by DAPI staining based immunofluorescence analysis. It counts as functional, cell-based.
A short description of series [10]: Toxicity in Balb/c nude mouse xenografted with human BGC-823 cells assessed as change in body weight at 15 to 30 mg/kg, ip. The note with it: in vivo, dose 15-30 mg/kg. It counts as organism-based. Background: A xenograft is tissue or cells of one species grown in another, often human tumour cells in immunodeficient mice.
For series [11], the target named is T1, Histone-lysine N-methyltransferase SMYD3 (Homo sapiens). In words: Inhibition of SMYD3 in human BGC-823 cells assessed as translocation of SMYD3 from nucleus to cytoplasm by DAPI staining based analysis. Type of series: cell-based.
The subject of series [12] is Mus musculus. Put plainly: Effect on total SMYD3 protein level in Balb/c nude mouse xenografted with human BGC-823 cells at 15 to 30 mg/kg, ip by immunohistochemistry analysis. The conditions noted are these: dose 15-30 mg/kg. Type of series: functional, organism-based.
Series [13] concerns the target T3, Histone-lysine N-methyltransferase SMYD3 (Homo sapiens, UniProt Q9H7B4).
T3 sequence (Q9H7B4 whole entry): T1 sequence (whole entry)
The series is described as §1.

Series [14] relates to BGC-823. In words: Induction of autophagy in human BGC-823 cells transfected with GFP-LC3 assessed as increase in GFP-LC3 fluorescent puncta by DAPI staining based immunofluorescence analysis. Type of series: functional, cell-based.
Series [15] has as its target Histone-lysine N-methyltransferase, H3 lysine-79 specific (Homo sapiens) (UniProt Q8TEK3). Put plainly: Inhibition of DOT1L (unknown origin).
The subject of series [16] is BGC-823. Put plainly: Antiproliferative activity against human BGC-823 cells transfected with […] siRNA assessed as reduction in cell viability incubated for 48 hrs by MTT assay. Type of series: functional, cell-based.
In series [17] the target is T1, Histone-lysine N-methyltransferase SMYD3 (Homo sapiens). In words: Inhibition of SMYD3 in human BGC-823 cells transfected with SMYD3 siRNA assessed as suppression of H3K4 methylation level by Western blot analysis. It counts as cell-based.
Series [18] concerns the target N-lysine methyltransferase SMYD2 (Homo sapiens) (UniProt Q9NRG4). In words: Inhibition of SMYD2 (unknown origin).
Series [19] has as its system BGC-823. In words: Inhibition of autophagic flux in human BGC-823 cells assessed as p62 accumulation incubated for 24 hrs in the presence of 3-MA by Western blot analysis. It counts as functional, cell-based.
Series [20] has as its system BGC-823. In words: Effect on total H3 methylation level in human BGC-823 cells at 1 uM by Western blot analysis. Type of series: functional, cell-based.
In series [21] the test system is BGC-823. Put plainly: Antitumor activity against human BGC-823 cells xenografted in ip dosed Balb/c nude mouse assessed as suppression of tumor weight. It counts as functional, organism-based. The conditions noted are these: dose 15-30 mg/kg.
Series [22] relates to BGC-823. Put plainly: Induction of autophagy in human BGC-823 cells assessed as autophagic vacuoles by transmission electron microscopic analysis. Type of series: functional, cell-based.
Series [23] has as its system BGC-823. Put plainly: Inhibition of autophagic flux in human BGC-823 cells transfected with Akt1 siRNA assessed as p62 accumulation incubated for 24 hrs by Western blot analysis. It counts as functional, cell-based.
For series [24], the system named is BGC-823. Put plainly: Effect on total H3 expression level in human BGC-823 cells at 1 uM by Western blot analysis. It counts as functional, cell-based.
Series [25] can be described thus: Toxicity in Balb/c nude mouse xenografted with human BGC-823 cells assessed as change in main organs morphology at 15 to 30 mg/kg, ip by H&E staining based analysis. Type of series: organism-based. The conditions noted are these: in vivo, dose 15-30 mg/kg.
The test system of series [26] is BGC-823. In words: Antitumor activity against human BGC-823 cells xenografted in ip dosed Balb/c nude mouse assessed as suppression of tumor growth. Type of series: functional, organism-based. The note with it: dose 15-30 mg/kg.
The target in series [27] is Histone-lysine N-methyltransferase EZH2 (Homo sapiens) (UniProt Q15910). Put plainly: Inhibition of EZH2 (unknown origin).
Series [28] concerns BGC-823. Put plainly: Inhibition of autophagic flux in human BGC-823 cells transfected with Akt1 siRNA assessed as LC3 cleavage incubated for 24 hrs by Western blot analysis. Type of series: functional, cell-based.
The test system of series [29] is BGC-823. In words: Induction of autophagy in human BGC-823 cells transfected with GFP-LC3 assessed as increase in GFP-LC3 fluorescent puncta in the presence of 3-MA by DAPI staining based immunofluorescence analysis. Type of series: functional, cell-based.
In series [30] the test system is BGC-823. In words: Antitumor activity against human BGC-823 cells xenografted in ip dosed Balb/c nude mouse assessed as suppression of tumor volume. Type of series: functional, organism-based. The conditions noted are these: dose 15-30 mg/kg.
The target in series [31] is T1, Histone-lysine N-methyltransferase SMYD3 (Homo sapiens). Put plainly: Inhibition of SMYD3 in human BGC-823 cells assessed as suppression of H3K4 methylation level at 1 uM by Western blot analysis. It counts as cell-based.
For series [32], the system named is BGC-823. In words: Antiproliferative activity against human BGC-823 cells xenografted in Balb/c nude mouse assessed as induction of autophagy by measuring increase in p62 staining at 15 to 30 mg/kg, ip by immunohistochemistry analysis. Type of series: functional, organism-based. The conditions noted are these: dose 15-30 mg/kg.
The target in series [33] is T1, Histone-lysine N-methyltransferase SMYD3 (Homo sapiens). Put plainly: Inhibition of SMYD3-induced Akt1 lysine methylation in human BGC-823 cells at 1 uM by Western blot analysis. Type of series: cell-based.
The subject of series [34] is Mus musculus. Put plainly: Effect on total Akt protein level in Balb/c nude mouse xenografted with human BGC-823 cells at 15 to 30 mg/kg, ip by immunohistochemistry analysis. Type of series: functional, organism-based. The conditions noted are these: dose 15-30 mg/kg.

Sequence of Histone-lysine N-methyltransferase, H3 lysine-79 specific (Homo sapiens) (Q8TEK3 whole entry, looked up): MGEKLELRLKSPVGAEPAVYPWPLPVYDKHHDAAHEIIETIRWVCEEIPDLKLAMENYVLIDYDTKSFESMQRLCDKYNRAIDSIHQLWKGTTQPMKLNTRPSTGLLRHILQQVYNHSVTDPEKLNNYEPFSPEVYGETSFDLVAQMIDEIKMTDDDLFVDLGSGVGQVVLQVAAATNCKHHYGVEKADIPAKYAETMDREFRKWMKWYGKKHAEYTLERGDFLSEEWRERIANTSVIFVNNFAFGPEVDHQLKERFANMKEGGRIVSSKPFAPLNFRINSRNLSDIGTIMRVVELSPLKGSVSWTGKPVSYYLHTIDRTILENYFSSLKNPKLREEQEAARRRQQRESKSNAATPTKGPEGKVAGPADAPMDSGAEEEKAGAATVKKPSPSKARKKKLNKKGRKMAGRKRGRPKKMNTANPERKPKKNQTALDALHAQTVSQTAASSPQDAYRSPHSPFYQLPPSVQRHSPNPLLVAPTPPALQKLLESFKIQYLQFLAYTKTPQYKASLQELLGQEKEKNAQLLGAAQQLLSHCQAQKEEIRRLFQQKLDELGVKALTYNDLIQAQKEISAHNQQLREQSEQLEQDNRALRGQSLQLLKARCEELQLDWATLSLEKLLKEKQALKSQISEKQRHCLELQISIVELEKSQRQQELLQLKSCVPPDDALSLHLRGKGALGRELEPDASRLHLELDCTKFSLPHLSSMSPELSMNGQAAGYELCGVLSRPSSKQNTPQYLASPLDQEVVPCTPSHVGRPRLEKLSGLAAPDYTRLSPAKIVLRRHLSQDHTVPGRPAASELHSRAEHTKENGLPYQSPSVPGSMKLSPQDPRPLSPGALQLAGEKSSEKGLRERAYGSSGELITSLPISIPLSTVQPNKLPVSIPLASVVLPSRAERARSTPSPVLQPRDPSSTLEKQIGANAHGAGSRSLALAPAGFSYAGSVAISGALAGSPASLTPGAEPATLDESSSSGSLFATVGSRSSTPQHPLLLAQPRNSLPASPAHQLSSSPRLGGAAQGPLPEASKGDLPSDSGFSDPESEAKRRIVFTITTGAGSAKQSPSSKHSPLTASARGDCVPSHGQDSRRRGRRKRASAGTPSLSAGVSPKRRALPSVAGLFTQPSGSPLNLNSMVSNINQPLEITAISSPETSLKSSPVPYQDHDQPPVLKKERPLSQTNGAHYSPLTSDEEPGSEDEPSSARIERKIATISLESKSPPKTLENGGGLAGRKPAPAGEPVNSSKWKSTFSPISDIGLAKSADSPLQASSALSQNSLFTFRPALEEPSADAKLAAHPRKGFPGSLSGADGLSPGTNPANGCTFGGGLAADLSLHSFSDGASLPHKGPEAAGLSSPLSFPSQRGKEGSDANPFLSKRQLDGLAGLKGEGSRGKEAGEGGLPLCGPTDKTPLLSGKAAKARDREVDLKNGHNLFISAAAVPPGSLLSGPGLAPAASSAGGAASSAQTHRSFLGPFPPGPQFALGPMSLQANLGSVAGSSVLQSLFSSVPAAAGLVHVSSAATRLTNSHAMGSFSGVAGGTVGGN
Sequence of N-lysine methyltransferase SMYD2 (Homo sapiens) (Q9NRG4 whole entry): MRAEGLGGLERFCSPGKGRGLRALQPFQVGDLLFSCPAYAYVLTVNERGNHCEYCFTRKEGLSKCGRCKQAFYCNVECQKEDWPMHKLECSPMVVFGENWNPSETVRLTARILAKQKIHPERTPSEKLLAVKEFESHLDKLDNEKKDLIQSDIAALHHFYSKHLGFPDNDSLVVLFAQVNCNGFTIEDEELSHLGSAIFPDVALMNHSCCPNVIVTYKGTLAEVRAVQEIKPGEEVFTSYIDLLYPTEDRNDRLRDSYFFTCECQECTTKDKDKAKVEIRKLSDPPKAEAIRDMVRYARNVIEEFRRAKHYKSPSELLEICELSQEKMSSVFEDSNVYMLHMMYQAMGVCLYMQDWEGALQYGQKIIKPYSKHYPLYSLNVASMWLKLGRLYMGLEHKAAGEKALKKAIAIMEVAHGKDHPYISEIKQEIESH
Sequence of Histone-lysine N-methyltransferase EZH2 (Homo sapiens) (Q15910 whole entry, looked up): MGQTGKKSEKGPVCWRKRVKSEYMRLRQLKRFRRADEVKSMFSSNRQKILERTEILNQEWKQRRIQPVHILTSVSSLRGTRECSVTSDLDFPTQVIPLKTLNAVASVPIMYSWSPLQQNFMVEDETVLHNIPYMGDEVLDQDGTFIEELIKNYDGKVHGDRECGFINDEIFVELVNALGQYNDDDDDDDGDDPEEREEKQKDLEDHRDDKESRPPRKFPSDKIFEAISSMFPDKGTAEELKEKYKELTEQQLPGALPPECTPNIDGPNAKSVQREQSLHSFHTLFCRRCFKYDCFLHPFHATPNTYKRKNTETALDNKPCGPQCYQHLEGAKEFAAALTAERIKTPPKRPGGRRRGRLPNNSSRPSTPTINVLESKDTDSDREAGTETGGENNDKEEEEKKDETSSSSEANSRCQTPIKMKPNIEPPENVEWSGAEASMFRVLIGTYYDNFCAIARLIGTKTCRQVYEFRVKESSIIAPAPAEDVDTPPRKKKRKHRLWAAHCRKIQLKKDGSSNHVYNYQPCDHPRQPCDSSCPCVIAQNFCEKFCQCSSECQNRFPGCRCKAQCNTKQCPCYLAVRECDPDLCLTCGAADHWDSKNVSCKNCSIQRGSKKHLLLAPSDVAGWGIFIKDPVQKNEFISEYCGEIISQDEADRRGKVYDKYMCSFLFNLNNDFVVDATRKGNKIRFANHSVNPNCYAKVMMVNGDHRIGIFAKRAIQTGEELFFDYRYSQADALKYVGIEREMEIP

For the molecule `Cc1ccc([C@@H]2[C@H]3CN(Cc4ccccc4)C(=O)[C@@]3(O)O[C@]23C(=O)Nc2ccccc23)cc1`, in series [1], the inhibition entry was “Active”. Besides, the outcome in [2] and in series [3] was Active.
Regarding `O=C1N(Cc2ccccc2)C[C@@H]2[C@@H](c3ccc(Cl)cc3Cl)[C@]3(O[C@]12O)C(=O)Nc1ccccc13`, the inhibition entry in series [1] was “Active”. Besides, the result in series [2] and in [3] was Active.
For `O=C1N(Cc2ccccc2)C[C@@H]2[C@@H](c3ccc(Cl)cc3)[C@]3(O[C@]12O)C(=O)Nc1ccccc13`, the inhibition result in [1] was “Active”. Besides, the outcome in series [2] and in series [3] was Active.
Turning to `O=C1N(Cc2ccccc2)C[C@@H]2[C@@H](c3cccs3)[C@]3(O[C@]12O)C(=O)Nc1ccccc13`, in series [1], the inhibition entry is “Active”. For the same molecule, the result in series [2] and in series [3] was Active.
With `O=C1N(Cc2ccccc2)C[C@@H]2[C@@H](c3ccc(Br)cc3)[C@]3(O[C@]12O)C(=O)Nc1ccccc13`, the inhibition entry in series [4], in series [6], in series [9], in series [11], in series [17] and in [19] was “Active” throughout. The inhibition result in series [23], in [28], in [31] and in series [33] was “Active” each time. In addition, the outcome in [5], in series [12], in series [16], in series [20], in series [24] and in series [29] was inactive. The outcome in [34] was inactive. Also, the inhibition entry in series [7], in [15], in [18] and in series [27] was “inactive” throughout. Moreover, the result in series [8], in [14], in series [22], in [2] and in series [32] was Active. Further, the Activity result is “Non-Toxic” in series [10]; “Dose-Dependent Effect” in series [21]; “Non-Toxic” in series [25]; “Dose-Dependent Effect” in [26]; “Dose-Dependent Effect” in series [30]. In addition, the 50% inhibitory concentration (IC50) was 810 nM in series [13] and 750 nM in series [3].
Take `COc1ccc([C@@H]2[C@H]3CN(Cc4ccccc4)C(=O)[C@@]3(O)O[C@]23C(=O)Nc2ccccc23)cc1OC`: the inhibition result in series [1] was “Active”. The result in series [2] and in [3] was Active.
Turning to `O=C1N(Cc2ccccc2)C[C@@H]2[C@@H](c3ccc4ccccc4c3)[C@]3(O[C@]12O)C(=O)Nc1ccccc13`, the inhibition entry in series [1] is “Active”. Besides, the result in series [2] and in series [3] was Active.

By IC50 is commonly meant the point on the concentration scale where inhibition reaches its midpoint.
